Experimental data: ChEMBL document CHEMBL4118195, “Synthesis and profiling of benzylmorpholine 1,2,4,5-tetraoxane analogue N205: Towards tetraoxane scaffolds with potential for single dose cure of malaria” (Bioorg Med Chem, 2018)

Assays:
Plasmodium berghei [1] = test: Antimalarial activity against Plasmodium berghei infected in mouse assessed as reduction in parasitemia at 30 mg/kg, po administered as single dose measured on day 3 relative to control; format: functional; set-up: scale not given: the % may be the effect or the level left
Plasmodium berghei [2] = test: Antimalarial activity against Plasmodium berghei infected in mouse assessed as mouse mean survival days at 30 mg/kg, po administered as single dose; format: functional
[3] = Metabolic stability in rat blood after 2 to 4 hrs by LC-MS method; format: ADME, tissue-based
Plasmodium falciparum [4] = test: Antimalarial activity against Plasmodium falciparum 3D7 infected in human erythrocytes after 48 hrs by SYBR Green I dye-based fluorescence assay; format: functional, organism-based; settings: 3D7, 48 h
[5] = Metabolic stability in human blood after 2 to 4 hrs by LC-MS method; format: ADME, tissue-based
[6] = Half life in rat blood by LC-MS method; format: ADME, tissue-based
[7] = Solubility in pH 2 citric acid monophosphate buffer after 4 hrs by HPLC analysis; format: physicochemical
[8] = Solubility in 0.1 N HCl buffer at pH 1 after 4 hrs by HPLC analysis; format: physicochemical
[9] = Solubility in 0.01 N HCl buffer at pH 2 after 4 hrs by HPLC analysis; format: physicochemical
[10] = Solubility in PH 7.4 PBS buffer after 4 hrs by HPLC analysis; format: physicochemical
[11] = Solubility in pH 6.5 FaSSIF after 4 hrs by HPLC analysis; format: physicochemical
[12] = Solubility in pH 5 FeSSIF after 4 hrs by HPLC analysis; format: physicochemical
[13] = Aqueous solubility after 4 hrs by HPLC analysis; format: physicochemical; settings: water
[14] = Half life in rat blood after 4 hrs by LC-MS method; format: ADME, tissue-based
[15] = Drug degradation in human blood after 4 hrs by LC-MS method; format: ADME, tissue-based; settings: read-out: Drug degradation
[16] = Clearance in Sprague-Dawley rat plasma at 100 mg/kg, po administered via gavage or administered as 10 mins infusion iv by LC/MS analysis; format: ADME, organism-based
[17] = Volume of distribution at steady state in Sprague-Dawley rat plasma at 100 mg/kg, po administered via gavage or iv administered as 10 mins infusion by LC/MS analysis; format: ADME, organism-based; settings: read-out: Vdss
[18] = Half life in iv dosed Sprague-Dawley rat plasma administered as 10 mins infusion by LC/MS analysis; format: ADME, organism-based
[19] = Protein binding in human plasma at 2000 ng/ml after 6 hrs by equilibrium dialysis method; format: ADME, cell-free; settings: read-out: PB
[20] = Protein binding in human liver microsomes at 1 uM by ultracentrifugation method; format: ADME, microsome; settings: read-out: PB
[21] = Drug level in human liver microsomes treated with N205 at 5 uM after 60 mins by UPLC-MS analysis; format: ADME, microsome; settings: 1 h
[22] = Drug level in rat liver microsomes treated with N205 at 5 uM after 60 mins by UPLC-MS analysis; format: ADME, microsome; settings: 1 h
[23] = Drug level in mouse liver microsomes treated with N205 at 5 uM after 60 mins by UPLC-MS analysis; format: ADME, microsome; settings: 1 h
[24] = Retention time of the compound; format: physicochemical
Plasmodium falciparum [25] = test: Antimalarial activity against Plasmodium falciparum Pf3D70087/N9 infected in po dosed humanized NOD.Cg-Prkdcscid Il2rgtm1Wjl/SzJ mouse assessed as reduction in parasitemia administered as single dose measured on day 7 post infection by SYTO-16 dye-based flow cytometric analysis; format: functional; settings: 168 h
Plasmodium falciparum [26] = test: Antimalarial activity against Plasmodium falciparum Pf3D70087/N9 infected in po dosed humanized NOD.Cg-Prkdcscid Il2rgtm1Wjl/SzJ mouse assessed as compound concentration in whole blood require to reduce parasitemia in peripheral blood by 90% administered as single dose measured on day 7 post infection by SYTO-16 dye-based flow cytometric analysis; format: functional, organism-based
[27] = Oral bioavailability in Sprague-Dawley rat at 100 mg/kg administered via gavage by LC/MS analysis; format: ADME, organism-based; settings: in vivo
[28] = Half life in Sprague-Dawley rat at 10 mg/kg, po; format: ADME, organism-based; settings: in vivo
Plasmodium falciparum [29] = test: Antimalarial activity against Plasmodium falciparum Pf3D70087/N9 infected in humanized NOD.Cg-Prkdcscid Il2rgtm1Wjl/SzJ mouse assessed as reduction in parasitemia administered 4 daily doses by SYTO-16 dye-based flow cytometric analysis; format: functional

In the case of `CS(=O)(=O)O.FC1CCN(Cc2ccc(C3CCC4(CC3)OOC3(OO4)C4CC5CC(C4)CC3C5)cc2)CC1` (centres undefined), the Activity (Plasmodium berghei [1]) is reported as 99.98% and the MSD (Plasmodium berghei [2]) is reported as 13 days.
For `FC1CCN(Cc2ccc(C3CCC4(CC3)OOC3(OO4)C4CC5CC(C4)CC3C5)cc2)CC1` (centres undefined), the Stability [3] was “Stable”, the IC50 (Plasmodium falciparum [4]) was 1.8 nM and the Stability [5] was “Stable”.
Work on `CNCCNC(=O)c1ccc(C2CCC3(CC2)OOC2(OO3)C3CC4CC(C3)CC2C4)cc1` (centres undefined) yielded an IC50 (Plasmodium falciparum [4]) of 0.84 nM and a half-life [6] of under 4 h.
Compound `CN1CCN(C(=O)c2ccc(C3CCC4(CC3)OOC3(OO4)C4CC5CC(C4)CC3C5)cc2)CC1` (centres undefined) has an IC50 (Plasmodium falciparum [4]) of 6.4 nM and a half-life [6] of under 4 h.
`CS(=O)(=O)O.c1cc(C2CCC3(CC2)OOC2(OO3)C3CC4CC(C3)CC2C4)ccc1CN1CCOCC1` (centres undefined) gave an Activity (Plasmodium berghei [1]) of 99.3%, an MSD (Plasmodium berghei [2]) of 25 days and a solubility at 4 h [7] of over 9000 µg/mL. For the same compound, the solubility at 4 h [8] was 17 µg/mL, the solubility at 4 h [9] was 172 µg/mL and the solubility at 4 h [10] was under 0.1 µg/mL. For the same compound, the solubility at 4 h [11] was 18 µg/mL, the solubility ([12]; simulated gi fluid, pH 5, 4 h) was 760 µg/mL and the solubility at 4 h [13] was over 9000 µg/mL. The half-life [14] was 8 h, the metabolised at 4 h [15] was 10% and the clearance [16] was 77 mL/min/kg. For the same compound, the Vd [17] was 11 L/kg, the half-life [18] was 6.35 h and the fraction unbound at 6 h, 2000 ng/ml [19] was under 0.001. The fraction unbound at 1 µM [20] was under 0.001.
With `OC1CCC(c2ccc(CN3CCOCC3)cc2)CC1` (centres undefined) the Drug metabolism [21] was “Metabolite_Detected”, the Drug metabolism [22] was “Metabolite_Detected” and the Drug metabolism [23] was “Metabolite_Detected”. The Retention_time [24] was 0.86 min.
Work on `c1cc(C2CCC3(CC2)OOC2(O3)C3CC4CC(C3)CC2C4)ccc1OCCN1CCOCC1` (centres undefined) [listing 1 of 2 here] yielded an IC50 (Plasmodium falciparum [4]) of 8 nM, an Activity (Plasmodium berghei [1]) of 99.4% and an MSD (Plasmodium berghei [2]) of 30 days. It also gave an ED90 (Plasmodium falciparum [25]) of 6.2 mg/kg.
With `O=C(NCC1CCNCC1)c1ccc(C2CCC3(CC2)OOC2(OO3)C3CC4CC(C3)CC2C4)cc1` (centres undefined) the IC50 (Plasmodium falciparum [4]) was 5.3 nM and the half-life [6] was under 4 h.
With `NCCNC(=O)c1ccc(C2CCC3(CC2)OOC2(OO3)C3CC4CC(C3)CC2C4)cc1` (centres undefined) the IC50 (Plasmodium falciparum [4]) was 1.1 nM and the half-life [6] was under 4 h.
Work on `c1cc(C2CCC3(CC2)OOC2(OO3)C3CC4CC(C3)CC2C4)ccc1CN1CCOCC1` (centres undefined) yielded an AUCED90 (Plasmodium falciparum [26]) of under 0.75 µg·h/mL.
For `O=C(c1ccc(C2CCC3(CC2)OOC2(OO3)C3CC4CC(C3)CC2C4)cc1)N1CCNCC1` (centres undefined), the IC50 (Plasmodium falciparum [4]) was 3 nM, the half-life [6] was under 4 h and the Activity (Plasmodium berghei [1]) was 99%. It also gave an MSD (Plasmodium berghei [2]) of 10 days.
Compound `NC1CCN(C(=O)c2ccc(C3CCC4(CC3)OOC3(OO4)C4CC5CC(C4)CC3C5)cc2)CC1` (centres undefined) has an IC50 (Plasmodium falciparum [4]) of 4.2 nM, a half-life [6] of under 4 h and an Activity (Plasmodium berghei [1]) of 99%. For the same compound, the MSD (Plasmodium berghei [2]) was 8 days.
For `O=C(c1ccc(C2CCC3(CC2)OOC2(OO3)C3CC4CC(C3)CC2C4)cc1)N1CCOCC1` (centres undefined), the IC50 (Plasmodium falciparum [4]) was 7.1 nM and the half-life [6] was under 4 h.
In the case of `O=C(c1ccc(C2CCC3(CC2)OOC2(OO3)C3CC4CC(C3)CC2C4)cc1)N1CCSCC1` (centres undefined), the IC50 (Plasmodium falciparum [4]) is reported as 15 nM and the half-life [6] is reported as under 4 h.
In the case of `O=C1CCC(c2ccc(CN3CCOCC3)cc2)CC1`, the Drug metabolism [21] is reported as “Metabolite_Detected”, the Drug metabolism [22] is reported as “Metabolite_Detected” and the Drug metabolism [23] is reported as “Metabolite_Detected”. For the same compound, the Retention_time [24] was 0.84 min.
In the case of `CC(C)(N)CNC(=O)CC1CCC2(CC1)OOC1(O2)C2CC3CC(C2)CC1C3` (centres undefined), the Activity (Plasmodium berghei [1]) is reported as 99.98% and the MSD (Plasmodium berghei [2]) is reported as 10.2 days.
For `O=C(c1ccc(C2CCC3(CC2)OOC2(OO3)C3CC4CC(C3)CC2C4)cc1)N1CCCNCC1` (centres undefined), the IC50 (Plasmodium falciparum [4]) was 0.82 nM and the half-life [6] was under 4 h.
`NC1CN(C(=O)c2ccc(C3CCC4(CC3)OOC3(OO4)C4CC5CC(C4)CC3C5)cc2)C1` (centres undefined) gave an IC50 (Plasmodium falciparum [4]) of 33 nM and a half-life [6] of under 4 h.
With `CS(=O)(=O)O.c1cc(C2CCC3(CC2)OOC2(O3)C3CC4CC(C3)CC2C4)ccc1OCCN1CCOCC1` (centres undefined) the solubility at 4 h [7] was over 8000 µg/mL, the solubility at 4 h [8] was 34 µg/mL and the solubility at 4 h [9] was 240 µg/mL. The solubility at 4 h [11] was 120 µg/mL, the solubility at 4 h ([12]; FeSSIF, pH 5) was over 1500 µg/mL and the solubility at 4 h [13] was 6800 µg/mL. It also gave a Vd [17] of 18 L/kg and a bioavailability [27] of 100%.
Work on `CN1CCN(C2CCN(C(=O)CC3CCC4(CC3)OOC3(OO4)C4CC5CC(C4)CC3C5)CC2)CC1` (centres undefined) yielded an Activity (Plasmodium berghei [1]) of 99.98%, an MSD (Plasmodium berghei [2]) of 11.4 days and a half-life [28] of 3.5 h.
Work on `c1cc(C2CCC3(CC2)OOC2(O3)C3CC4CC(C3)CC2C4)ccc1OCCN1CCOCC1` (centres undefined) [listing 2 of 2 here] yielded an AUCED90 (Plasmodium falciparum [26]) of 0.68 µg·h/mL.
`C[C@H]1[C@H](OC(=O)CCC(=O)O)O[C@@H]2O[C@@]3(C)CC[C@H]4[C@H](C)CC[C@@H]1[C@@]24OO3` [ARTESUNATE] showed an Activity (Plasmodium berghei [1]) of 99.09%, an MSD (Plasmodium berghei [2]) of 6.8 days and an ED90 (Plasmodium falciparum [29]) of 10 mg/kg.
In the case of `OCCNCc1ccc(C2CCC3(CC2)OOC2(OO3)C3CC4CC(C3)CC2C4)cc1` (centres undefined), the Drug metabolism [21] is reported as “Metabolite_Detected”, the Drug metabolism [22] is reported as “Metabolite_Detected” and the Drug metabolism [23] is reported as “Metabolite_Detected”. The Retention_time [24] was 3.54 min.
